# Results reported in article PMC10728895, “Stapled Phd Peptides Inhibit Doc Toxin Induced Growth Arrest in Salmonella” (ACS Chemical Biology, 2023).
# Non-standard residues stand in square brackets, D forms with d. Residues, ends and D or L forms follow the SMILES beside them. Nle = CCCC[C@H](N)C(=O)O
# Test system: DocSTm toxin
# Settings: DocSTm 5 μM, peptide 50 μM, pH 8.0; average ± SD, replicates 3-48 (Table S3)
# Procedure: The thermal shift assay was performed using a Mx3005P qPCR System (Agilent) collecting fluorescence data with a temperature ramp of 25 to 95 °C. Samples were prepared in a buffer containing 20 mM K2HPO4 and 50 mM (NH4)2SO4 at pH 8.0, with a final concentration of recombinant Doc protein at 5 μM and Phd peptides at 50 μM. SYPRO Orange dye (Sigma-Aldrich, 5000X stock in DMSO) was used to monitor protein denaturation in a final concentration of 3×. The final sample volume was 20 μL. Each condition was prepared in triplicate in each independent experiment. The melting curves were plotted using GraphPad Prism 9 (GraphPad Software, USA), and the melting temperatures were obtained by fitting the sigmoidal section of the curves to a Boltzmann sigmoid function. For the calculation of thermal shifts ΔTm, the average melting temperature of free DocSTm toxin as determined in the respective peptide measurement cycles was subtracted from the average melting temperature of DocSTm in the presence of the peptide (Table S3).
row,SMILES,Average Tm of DocSTm in the presence of peptide [°C]
1,CCCC[C@H](NC(=O)[C@H](Cc1c[nH]c2ccccc12)NC(C)=O)C(=O)N[C@@H](CCCNC(=N)N)C(=O)N[C@@H](CC(=O)O)C(=O)N[C@@H](CCC(=O)O)C(=O)N[C@@H](Cc1ccccc1)C(=O)N[C@@H](C)C(=O)N[C@@H](C)C(=O)N[C@H](C(=O)N[C@@H](CCCC)C(=O)N[C@@H](C)C(=O)N[C@H](C(=O)N[C@@H](Cc1c[nH]cn1)C(=O)NCC(=O)N[C@@H](CC(N)=O)C(=O)N[C@@H](CCC(=O)O)C(=O)N[C@@H](CC(C)C)C(=O)N[C@@H](CCCNC(=N)N)C(=O)N[C@@H](CCC(=O)O)C(=O)N[C@@H](CC(C)C)C(=O)N[C@@H](C)C(=O)N[C@@H](CC(=O)O)C(=O)N[C@@H](CCCCN)C(=O)O)C(C)C)[C@@H](C)CC [Peptide 2] (Ac-W[Nle]RDEFAAI[Nle]AVHGNELRELADK-OH),66.4 ± 0.2
2,CCCC[C@H](NC(=O)[C@H](Cc1c[nH]c2ccccc12)NC(C)=O)C(=O)N[C@@H](CC(=O)O)C(=O)N[C@@H](CCCNC(=N)N)C(=O)N[C@@H](CCC(=O)O)C(=O)N[C@@H](Cc1ccccc1)C(=O)N[C@@H](C)C(=O)N[C@@H](C)C(=O)N[C@H](C(=O)N[C@@H](CCCC)C(=O)N[C@@H](C)C(=O)N[C@H](C(=O)N[C@@H](Cc1c[nH]cn1)C(=O)NCC(=O)N[C@@H](CC(N)=O)C(=O)N[C@@H](CCC(=O)O)C(=O)N[C@@H](CC(C)C)C(=O)N[C@@H](CCCNC(=N)N)C(=O)N[C@@H](CCC(=O)O)C(=O)N[C@@H](CC(C)C)C(=O)N[C@@H](C)C(=O)N[C@@H](CC(=O)O)C(=O)N[C@@H](CCCCN)C(=O)O)C(C)C)[C@@H](C)CC [Peptide 3] (Ac-W[Nle]DREFAAI[Nle]AVHGNELRELADK-OH),67.4 ± 0.2
3,CCCC[C@H](NC(=O)[C@H](Cc1c[nH]c2ccccc12)NC(C)=O)C(=O)N[C@@H](CC(=O)O)C(=O)N[C@@H](CC(=O)O)C(=O)N[C@@H](CCCNC(=N)N)C(=O)N[C@@H](Cc1ccccc1)C(=O)N[C@@H](C)C(=O)N[C@@H](C)C(=O)N[C@H](C(=O)N[C@@H](CCCC)C(=O)N[C@@H](C)C(=O)N[C@H](C(=O)N[C@@H](Cc1c[nH]cn1)C(=O)NCC(=O)N[C@@H](CC(N)=O)C(=O)N[C@@H](CCC(=O)O)C(=O)N[C@@H](CC(C)C)C(=O)N[C@@H](CCCNC(=N)N)C(=O)N[C@@H](CCC(=O)O)C(=O)N[C@@H](CC(C)C)C(=O)N[C@@H](C)C(=O)N[C@@H](CC(=O)O)C(=O)N[C@@H](CCCCN)C(=O)O)C(C)C)[C@@H](C)CC [Peptide 4] (Ac-W[Nle]DDRFAAI[Nle]AVHGNELRELADK-OH),56.8 ± 2.1
4,CCCC[C@H](NC(=O)[C@H](Cc1c[nH]c2ccccc12)NC(C)=O)C(=O)N[C@@H](CC(=O)O)C(=O)N[C@@H](CC(=O)O)C(=O)N[C@@H](CCC(=O)O)C(=O)N[C@@H](Cc1ccccc1)C(=O)N[C@@H](CCCNC(=N)N)C(=O)N[C@@H](C)C(=O)N[C@H](C(=O)N[C@@H](CCCC)C(=O)N[C@@H](C)C(=O)N[C@H](C(=O)N[C@@H](Cc1c[nH]cn1)C(=O)NCC(=O)N[C@@H](CC(N)=O)C(=O)N[C@@H](CCC(=O)O)C(=O)N[C@@H](CC(C)C)C(=O)N[C@@H](CCCNC(=N)N)C(=O)N[C@@H](CCC(=O)O)C(=O)N[C@@H](CC(C)C)C(=O)N[C@@H](C)C(=O)N[C@@H](CC(=O)O)C(=O)N[C@@H](CCCCN)C(=O)O)C(C)C)[C@@H](C)CC [Peptide 5] (Ac-W[Nle]DDEFRAI[Nle]AVHGNELRELADK-OH),69.7 ± 0.7
5,CCCC[C@H](NC(=O)[C@H](Cc1c[nH]c2ccccc12)NC(C)=O)C(=O)N[C@@H](CC(=O)O)C(=O)N[C@@H](CC(=O)O)C(=O)N[C@@H](CCC(=O)O)C(=O)N[C@@H](Cc1ccccc1)C(=O)N[C@@H](C)C(=O)N[C@@H](CCCNC(=N)N)C(=O)N[C@H](C(=O)N[C@@H](CCCC)C(=O)N[C@@H](C)C(=O)N[C@H](C(=O)N[C@@H](Cc1c[nH]cn1)C(=O)NCC(=O)N[C@@H](CC(N)=O)C(=O)N[C@@H](CCC(=O)O)C(=O)N[C@@H](CC(C)C)C(=O)N[C@@H](CCCNC(=N)N)C(=O)N[C@@H](CCC(=O)O)C(=O)N[C@@H](CC(C)C)C(=O)N[C@@H](C)C(=O)N[C@@H](CC(=O)O)C(=O)N[C@@H](CCCCN)C(=O)O)C(C)C)[C@@H](C)CC [Peptide 6] (Ac-W[Nle]DDEFARI[Nle]AVHGNELRELADK-OH),67.3 ± 1.4
6,CCCC[C@H](NC(=O)[C@H](Cc1c[nH]c2ccccc12)NC(C)=O)C(=O)N[C@@H](CC(=O)O)C(=O)N[C@@H](CC(=O)O)C(=O)N[C@@H](CCC(=O)O)C(=O)N[C@@H](Cc1ccccc1)C(=O)N[C@@H](C)C(=O)N[C@@H](C)C(=O)N[C@H](C(=O)N[C@@H](CCCC)C(=O)N[C@@H](CCCNC(=N)N)C(=O)N[C@H](C(=O)N[C@@H](Cc1c[nH]cn1)C(=O)NCC(=O)N[C@@H](CC(N)=O)C(=O)N[C@@H](CCC(=O)O)C(=O)N[C@@H](CC(C)C)C(=O)N[C@@H](CCCNC(=N)N)C(=O)N[C@@H](CCC(=O)O)C(=O)N[C@@H](CC(C)C)C(=O)N[C@@H](C)C(=O)N[C@@H](CC(=O)O)C(=O)N[C@@H](CCCCN)C(=O)O)C(C)C)[C@@H](C)CC [Peptide 7] (Ac-W[Nle]DDEFAAI[Nle]RVHGNELRELADK-OH),70.2 ± 0.3
7,CCCC[C@H](NC(=O)[C@H](Cc1c[nH]c2ccccc12)NC(C)=O)C(=O)N[C@@H](CC(=O)O)C(=O)N[C@@H](CC(=O)O)C(=O)N[C@@H](CCC(=O)O)C(=O)N[C@@H](Cc1ccccc1)C(=O)N[C@@H](C)C(=O)N[C@@H](C)C(=O)N[C@H](C(=O)N[C@@H](CCCC)C(=O)N[C@@H](C)C(=O)N[C@@H](CCCNC(=N)N)C(=O)N[C@@H](Cc1c[nH]cn1)C(=O)NCC(=O)N[C@@H](CC(N)=O)C(=O)N[C@@H](CCC(=O)O)C(=O)N[C@@H](CC(C)C)C(=O)N[C@@H](CCCNC(=N)N)C(=O)N[C@@H](CCC(=O)O)C(=O)N[C@@H](CC(C)C)C(=O)N[C@@H](C)C(=O)N[C@@H](CC(=O)O)C(=O)N[C@@H](CCCCN)C(=O)O)[C@@H](C)CC [Peptide 8] (Ac-W[Nle]DDEFAAI[Nle]ARHGNELRELADK-OH),67.8 ± 0.1
8,CCCC[C@H](NC(=O)[C@H](Cc1c[nH]c2ccccc12)NC(C)=O)C(=O)N[C@@H](CC(=O)O)C(=O)N[C@@H](CC(=O)O)C(=O)N[C@@H](CCC(=O)O)C(=O)N[C@@H](Cc1ccccc1)C(=O)N[C@@H](C)C(=O)N[C@@H](C)C(=O)N[C@H](C(=O)N[C@@H](CCCC)C(=O)N[C@@H](C)C(=O)N[C@H](C(=O)N[C@@H](Cc1c[nH]cn1)C(=O)NCC(=O)N[C@@H](CCCNC(=N)N)C(=O)N[C@@H](CCC(=O)O)C(=O)N[C@@H](CC(C)C)C(=O)N[C@@H](CCCNC(=N)N)C(=O)N[C@@H](CCC(=O)O)C(=O)N[C@@H](CC(C)C)C(=O)N[C@@H](C)C(=O)N[C@@H](CC(=O)O)C(=O)N[C@@H](CCCCN)C(=O)O)C(C)C)[C@@H](C)CC [Peptide 9] (Ac-W[Nle]DDEFAAI[Nle]AVHGRELRELADK-OH),72.3 ± 0.4
9,CCCC[C@H](NC(=O)[C@H](Cc1c[nH]c2ccccc12)NC(C)=O)C(=O)N[C@@H](CC(=O)O)C(=O)N[C@@H](CC(=O)O)C(=O)N[C@@H](CCC(=O)O)C(=O)N[C@@H](Cc1ccccc1)C(=O)N[C@@H](C)C(=O)N[C@@H](C)C(=O)N[C@H](C(=O)N[C@@H](CCCC)C(=O)N[C@@H](C)C(=O)N[C@H](C(=O)N[C@@H](Cc1c[nH]cn1)C(=O)NCC(=O)N[C@@H](CC(N)=O)C(=O)N[C@@H](CCCNC(=N)N)C(=O)N[C@@H](CC(C)C)C(=O)N[C@@H](CCCNC(=N)N)C(=O)N[C@@H](CCC(=O)O)C(=O)N[C@@H](CC(C)C)C(=O)N[C@@H](C)C(=O)N[C@@H](CC(=O)O)C(=O)N[C@@H](CCCCN)C(=O)O)C(C)C)[C@@H](C)CC [Peptide 10] (Ac-W[Nle]DDEFAAI[Nle]AVHGNRLRELADK-OH),59.5 ± 0.3
10,CCCC[C@H](NC(=O)[C@H](Cc1c[nH]c2ccccc12)NC(C)=O)C(=O)N[C@@H](CC(=O)O)C(=O)N[C@@H](CC(=O)O)C(=O)N[C@@H](CCC(=O)O)C(=O)N[C@@H](Cc1ccccc1)C(=O)N[C@@H](C)C(=O)N[C@@H](C)C(=O)N[C@H](C(=O)N[C@@H](CCCC)C(=O)N[C@@H](C)C(=O)N[C@H](C(=O)N[C@@H](Cc1c[nH]cn1)C(=O)NCC(=O)N[C@@H](CC(N)=O)C(=O)N[C@@H](CCC(=O)O)C(=O)N[C@@H](CC(C)C)C(=O)N[C@@H](CCCNC(=N)N)C(=O)N[C@@H](CCCNC(=N)N)C(=O)N[C@@H](CC(C)C)C(=O)N[C@@H](C)C(=O)N[C@@H](CC(=O)O)C(=O)N[C@@H](CCCCN)C(=O)O)C(C)C)[C@@H](C)CC [Peptide 11] (Ac-W[Nle]DDEFAAI[Nle]AVHGNELRRLADK-OH),73.5 ± 1.3
11,CCCC[C@H](NC(=O)[C@H](Cc1c[nH]c2ccccc12)NC(C)=O)C(=O)N[C@@H](CC(=O)O)C(=O)N[C@@H](CC(=O)O)C(=O)N[C@@H](CCC(=O)O)C(=O)N[C@@H](Cc1ccccc1)C(=O)N[C@@H](C)C(=O)N[C@@H](C)C(=O)N[C@H](C(=O)N[C@@H](CCCC)C(=O)N[C@@H](C)C(=O)N[C@H](C(=O)N[C@@H](Cc1c[nH]cn1)C(=O)NCC(=O)N[C@@H](CC(N)=O)C(=O)N[C@@H](CCC(=O)O)C(=O)N[C@@H](CC(C)C)C(=O)N[C@@H](CCCNC(=N)N)C(=O)N[C@@H](CCC(=O)O)C(=O)N[C@@H](CC(C)C)C(=O)N[C@@H](CCCNC(=N)N)C(=O)N[C@@H](CC(=O)O)C(=O)N[C@@H](CCCCN)C(=O)O)C(C)C)[C@@H](C)CC [Peptide 12] (Ac-W[Nle]DDEFAAI[Nle]AVHGNELRELRDK-OH),68.3 ± 0.9
